The values below are quoted from earlier work in patent US20160354348A1, “METHODS FOR PROPHYLATIC APPETITE SUPPRESSION” (Orexigen Therapeutics, Inc., priority 2005, published 2016).

The conditions of series [1]: Colosimo & De Michele 1999.
The conditions of series [2]: 20-25° C.

Where two headings read alike, the source gives them in different places.

As for `N[C@@H](Cc1ccc(O)c(O)c1)C(=O)O` [levodopa], the “Elimination half-life (T1/2)” value in series [1] is recorded as “about 1.5 hours”.
For the molecule `NS(=O)(=O)Cc1noc2ccccc12` [zonisamide, 1,2-benzisoxazole-3-methanesulfonamide], the “Half-life (t1/2) in plasma” value is “about 63 hours”. Further, the t1/2 in erythrocytes entry (erythrocytes) was “about 105 hours”. Also, the Protein bound (in vivo) was 40%. Besides, the “Half-life (t1/2) in plasma” value (listed as Zonisamide) is 63 to 69 h. For the same molecule, in series [2], the “Solubility in aqueous acid” value was “about 200 mg/ml”.
